Data reported in PubChem BioAssay (NCI).
Several values for one entry are separate records, joined by “and”; a condition that tells them apart may be missing. Identical values can stand only once.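 Following 48 hours of exposure in 96-well plates, responses at five concentrations were used to interpolate endpoints linearly. At the GI50, growth is halved. TGI: total growth inhibition.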

System: HCC-2998 colon
Experiment: NCI tumour cell line growth inhibition, 48 h

SMILES | GI50 [µM] | TGI [µM]
Clc1cc2c(c(CSc3nc4ccccc4n4cccc34)c1)OCOC2 | > 100 | > 100
COc1cnc2c(c1)C(=O)c1c-2n(CCCNC2=NCCS2)c(=O)c2cc([N+](=O)[O-])ccc12 | 1.03 | 2.45
CCOC(=O)N[C@H]1CCc2cc(OC)c(OC)c(OC)c2-c2ccc(SC)c(=O)cc21 | – | > 69.6
COc1ccc2c(c1OCC(=O)O)C(=O)C(CCC(=O)O)CC2 (centres undefined) | – | > 100
COC1C(OC(=S)Nc2ccccc2)c2ccccc2N1C(C)=O (centres undefined) | – | > 100
Cc1nc(Nc2cccnc2)sc1C(=O)/C=C/c1ccc(F)cc1 | 4.09 | 15.5
O=C(Nc1cccc(Cl)c1)C(=O)C(C(=O)c1ccc2ccccc2c1)C1OC(=O)c2ccccc21 (centres undefined) | – | 21.8
CC1=Cc2cccc(C)c2C(=O)C1=O | – | 27.8
COCC(OC)C(CC=C(C#N)C#N)OC (centres undefined) | – | > 100
NC1CCN(Cc2ccccc2)CC1 | > 100 | > 100
NNC(=O)CNc1cccc(Br)c1 | – | > 100
Nc1ncn([C@@H]2O[C@H](CO)[C@@H](O)[C@H]2O)c(=O)n1 | 0.636 | 5.55
COc1ccc(CCN(C)C2CCC(C#N)(c3ccc(OC)c(OC)c3)CC2)cc1OC (centres undefined) | – | > 100
O=C(OC1CCC(=C2SCCCS2)[C@H]1C1SCCCS1)c1ccccc1 (some centres undefined) | – | > 100
O=C(/C(=C/c1ccc(Cl)cc1)c1ccccc1)c1ccccc1 | – | 31.2
CC1(C)COC(c2cccc3c2C(=O)c2cccc(Cl)c2-3)=N1 | – | > 100
CCOC(=O)c1ccc(/C(C)=N/NC(N)=S)cc1 | – | > 100
c1ccc2c(OCCSCCCCCCCCCCSCCOc3cccc4ccccc34)cccc2c1 | – | > 100
NC(N)=N/N=C/c1c(Cl)cccc1Cl | 14.8 | 28.6

System: KM12 colon
Experiment: NCI tumour cell line growth inhibition, 48 h

SMILES | GI50 [µM] | TGI [µM]
CC1(C)OC2C(CO[Si](C)(C)C(C)(C)C)OC(n3c(I)c(C#C[Si](C)(C)C)c(=O)[nH]c3=O)C2O1 (centres undefined) | 23.2 | 92.7
CN(C)CC[C@H](CSc1ccccc1)Nc1ccc(S(=O)(=O)NC(=O)c2ccc(N3CCN(Cc4ccccc4-c4ccc(Cl)cc4)CC3)cc2)cc1[N+](=O)[O-] | 3.6 | 23.6
COc1ccc(-c2ccc(=O)oc2C#Cc2cc(OC)c(OC)c(OC)c2)cc1O | 0.759 | > 100
COC(=O)C(=Cc1cc(OC)c(OC)c(OC)c1-c1cc2c(cc1C1(C)OCCS1)OCO2)C(=O)OC (centres undefined) | – | 79.8
C#CC1/C(=C\C(=O)OC)CCCC1O (centres undefined) | – | > 100
O=C(/C=C/c1ccc[nH]1)c1ccc(-n2ccc(C(F)(F)F)n2)cc1 | 0.463 | 8.95
O=C(c1ccco1)c1c(C(F)(F)F)nc2ccc(Cl)cc2[n+]1[O-] | > 100 | > 100
CC12CCC(=O)C[C@H]1CCC(OC=O)C2Br (some centres undefined) | – | > 100
COc1ccc(-c2nnc3n(C)c(=O)c4ccccc4n23)cc1N | 0.0499 | > 100
Clc1cc2c(c(CSc3nc4ccccc4n4cccc34)c1)OCOC2 | > 100 | > 100
COc1cnc2c(c1)C(=O)c1c-2n(CCCNC2=NCCS2)c(=O)c2cc([N+](=O)[O-])ccc12 | 1.11 | 3.13
Cc1ccc2nc(/C(=C/c3ccc(/C=C(\NC(=O)c4ccccc4)c4nc5ccc(C)cc5[nH]4)c(C)c3)NC(=O)c3ccccc3)[nH]c2c1 | – | 37.5
COC1C(OC(=S)Nc2ccccc2)c2ccccc2N1C(C)=O (centres undefined) | – | > 100
Cc1nc(Nc2cccnc2)sc1C(=O)/C=C/c1ccc(F)cc1 | 2.04 | 4.61
O=C(Nc1cccc(Cl)c1)C(=O)C(C(=O)c1ccc2ccccc2c1)C1OC(=O)c2ccccc21 (centres undefined) | – | 60.3
CC1=Cc2cccc(C)c2C(=O)C1=O | – | 19.7
COCC(OC)C(CC=C(C#N)C#N)OC (centres undefined) | – | > 100

SMILES | GI50 [µM] | TGI [µM]
NC1CCN(Cc2ccccc2)CC1 | > 100 | > 100
NNC(=O)CNc1cccc(Br)c1 | – | > 100
N#CC(C(=O)/C(=N\NC(N)=O)C(C#N)c1ccc(Cl)cc1)c1ccc(Cl)cc1 (centres undefined) | – | > 100
NC(N)=NCCCC(=O)O | – | > 100
COc1c(O)c2c(=O)cc3c4c5c(cc(=O)c6c(O)c(OC)c(CC(C)O)c(c(c1CC(C)O)c24)c65)OCO3 (centres undefined) | – | 4.09
COc1ccc(CCN(C)C2CCC(C#N)(c3ccc(OC)c(OC)c3)CC2)cc1OC (centres undefined) | – | > 100
CCOC(=O)c1nc2c(OC)nn(O)cc-2c1[N+](=O)[O-] | – | 28.2
O=C(OC1CCC(=C2SCCCS2)[C@H]1C1SCCCS1)c1ccccc1 (some centres undefined) | – | > 100
O=C1CCC2(c3ccc(Cl)cc3)Nc3cc(Cl)ccc3N12 (centres undefined) | – | 24.4
O=C(/C(=C/c1ccc(Cl)cc1)c1ccccc1)c1ccccc1 | – | 30.5
CC1(C)COC(c2cccc3c2C(=O)c2cccc(Cl)c2-3)=N1 | – | > 100
CN(C)CCC(/C=C/c1ccccc1)=N\Nc1ccccc1 | – | 13.2
c1ccc2c(OCCSCCCCCCCCCCSCCOc3cccc4ccccc34)cccc2c1 | – | > 100
NC(N)=N/N=C/c1c(Cl)cccc1Cl | 19.9 | 59.1
Cc1cc2c(=O)c3ccccc3[nH]c2c(C(N)=O)c1C | – | > 100
O=C(Nc1cccc(C(F)(F)F)c1)c1ccc(NC2=C(Cl)C(=O)N(Cc3ccc(Cl)cc3Cl)C2=O)cc1 | 14.6 | 31.4

System: M14 melanoma
Experiment: NCI tumour cell line growth inhibition, 48 h

SMILES | GI50 [µM] | TGI
CC1(C)OC2C(CO[Si](C)(C)C(C)(C)C)OC(n3c(I)c(C#C[Si](C)(C)C)c(=O)[nH]c3=O)C2O1 (centres undefined) | 13.4 | 28.1 µM
CN(C)CC[C@H](CSc1ccccc1)Nc1ccc(S(=O)(=O)NC(=O)c2ccc(N3CCN(Cc4ccccc4-c4ccc(Cl)cc4)CC3)cc2)cc1[N+](=O)[O-] | 4.17 | 29.8 µM
COc1ccc(-c2ccc(=O)oc2C#Cc2cc(OC)c(OC)c(OC)c2)cc1O | 0.521 | > 100 µM
C#CC1/C(=C\C(=O)OC)CCCC1O (centres undefined) | – | > 100 µM
O=C(/C=C/c1ccc[nH]1)c1ccc(-n2ccc(C(F)(F)F)n2)cc1 | > 100 | > 100 µM
O=C(c1ccco1)c1c(C(F)(F)F)nc2ccc(Cl)cc2[n+]1[O-] | > 100 | > 100 µM
CC12CCC(=O)C[C@H]1CCC(OC=O)C2Br (some centres undefined) | – | > 100 µM
COc1ccc(-c2nnc3n(C)c(=O)c4ccccc4n23)cc1N | 0.0475 | > 100 µM
Clc1cc2c(c(CSc3nc4ccccc4n4cccc34)c1)OCOC2 | > 100 | > 100 µM
COc1cnc2c(c1)C(=O)c1c-2n(CCCNC2=NCCS2)c(=O)c2cc([N+](=O)[O-])ccc12 | < 0.01 | 1.16 µM
CCOC(=O)N[C@H]1CCc2cc(OC)c(OC)c(OC)c2-c2ccc(SC)c(=O)cc21 | – | 21.7 µM and > 27.1 µM
COc1ccc2c(c1OCC(=O)O)C(=O)C(CCC(=O)O)CC2 (centres undefined) | – | > 100 µM
Cc1ccc2nc(/C(=C/c3ccc(/C=C(\NC(=O)c4ccccc4)c4nc5ccc(C)cc5[nH]4)c(C)c3)NC(=O)c3ccccc3)[nH]c2c1 | – | 52.7 µM
COC1C(OC(=S)Nc2ccccc2)c2ccccc2N1C(C)=O (centres undefined) | – | > 100 µM
Cc1nc(Nc2cccnc2)sc1C(=O)/C=C/c1ccc(F)cc1 | 3.02 | 12.9 µM
O=C(Nc1cccc(Cl)c1)C(=O)C(C(=O)c1ccc2ccccc2c1)C1OC(=O)c2ccccc21 (centres undefined) | – | 36.7 µM
CC1=Cc2cccc(C)c2C(=O)C1=O | – | 9.54 µM
COCC(OC)C(CC=C(C#N)C#N)OC (centres undefined) | – | > 100 µM
NC1CCN(Cc2ccccc2)CC1 | > 100 | > 100 µM
NNC(=O)CNc1cccc(Br)c1 | – | > 100 µM
N#CC(C(=O)/C(=N\NC(N)=O)C(C#N)c1ccc(Cl)cc1)c1ccc(Cl)cc1 (centres undefined) | – | > 100 µM
NC(N)=NCCCC(=O)O | – | > 100 µM
Nc1ncn([C@@H]2O[C@H](CO)[C@@H](O)[C@H]2O)c(=O)n1 | 1.38 | 10.8 µM
COc1c(O)c2c(=O)cc3c4c5c(cc(=O)c6c(O)c(OC)c(CC(C)O)c(c(c1CC(C)O)c24)c65)OCO3 (centres undefined) | – | 3.57 µM
COc1ccc(CCN(C)C2CCC(C#N)(c3ccc(OC)c(OC)c3)CC2)cc1OC (centres undefined) | – | > 100 µM
CCOC(=O)c1nc2c(OC)nn(O)cc-2c1[N+](=O)[O-] | – | 36.4 µM
O=C(OC1CCC(=C2SCCCS2)[C@H]1C1SCCCS1)c1ccccc1 (some centres undefined) | – | > 100 µM
O=C1CCC2(c3ccc(Cl)cc3)Nc3cc(Cl)ccc3N12 (centres undefined) | – | 28.7 µM
